The values below come from US20230414506A1, “PEPTIDE FORMULATIONS AND METHODS OF USE” (REALTA LIFE SCIENCES, INC., priority 2020, published 2023).

The format of data set [1] is physicochemical. The note with it: 20% Intralipid, 4° C. for 48 hours.
The conditions of data set [2]: cited from earlier work.
In data set [3] the test system is complement activity (human O sera and AB red blood cells). The data set can be described thus: ABO incompatibility CH50-type hemolytic assay of peptides formulated with different excipients. Type of data set: biochemical. The settings on record: for Inhibition of complement activation in the hemolytic assay: formulated in citrate, ascorbate and methionine, compared to histidine formulation. The protocol:
To ascertain if these various excipients had any effect on the functional activity of PA-dPEG24 and PA-I8Sar, the formulated peptides were tested in a hemolytic assay to determine the ability of these molecules to inhibit complement activity. For hemolytic complement assays, human red blood cells (RBCs) from type AB donors were purified, washed and standardized to 1×10^9 cells/ml, as previously described. Human sera from type O donors at a 20% final concentration was combined with increasing concentrations of the formulated peptides and the volume was brought up to 0.15 ml with GVBS++ buffer and […] RBCs. The samples were spun at 3,000 rpm for 5 minutes and the supernatant was collected and read at 412 nm. Values are represented as a percent of the positive control, which consists of human O sera and AB red blood cells in GVBS++ buffer without peptide addition.

Data set [4] in a line: Gelling of citrate buffer formulation. In kind it is physicochemical. The note with it: 80 mg/ml, pH 6.8. The protocol: For the citrate buffer conditions, PA-dPEG24 and PA-I8Sar were formulated at a concentration of 80 mg/ml at pH 6.8. […] This gelling behavior was not observed for PA-I8Sar.
Data set [5] can be described thus: Aqueous solubility of the peptides. Type of data set: physicochemical.

Ends that are not written are not given here. dPEG24 = C-terminal PEG24

For the substance IALILEPICCQERAA [PA], the “Appearance of Intralipid mixture on standing” value in data set [1] is given as “became paste-like”.

For the substance “IALILEPICCQERAA-dPEG24 (cysteine pairing not given here) [PA-dPEG24, PIC1 peptide with a C-terminal monodisperse 24-mer PEGylated moiety]”, the Aqueous solubility result in data set [2] was “highly soluble”. Also, the “Complement inhibiting activity compared between excipients” value in data set [3] (ascorbate, citrate, histidine, methionine formulations) is reported as “slightly increased complement inhibiting activity compared to peptide formulated in methionine”. Further, in data set [3], the “Inhibition of complement activation in the hemolytic assay” value is recorded as “able to maintain dose-dependent inhibition of complement activation”. The Gelling behavior entry in data set [4] is on record as “would start to gel if not kept on ice”.

As to IALILEP(Sar)CCQERAA [PA-I8Sar], the “Solubility studies, character of the peptide” value in data set [5] was “amphipathic”. The “Inhibition of complement activation in the hemolytic assay” value in data set [3] is listed as “able to maintain dose-dependent inhibition of complement activation”. Also, in data set [4], the Gelling behavior result was “not observed”.
